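These data come from cells grown in 96-well plates and exposed to compound for 48 hours at five concentrations. GI50 = concentration required for 50% inhibition of growth. At the TGI there is no net growth.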
Legend:
Assay in all cases: NCI tumour cell line growth inhibition, 48 h
[1] = system: NCI-H23 lung
[2] = system: MOLT-4 leukemia
[3] = system: OVCAR-4 ovarian
[4] = system: MALME-3M melanoma
[5] = system: A498 renal
[6] = system: UACC-257 melanoma
[7] = system: NCI-H460 lung
[8] = system: K-562 leukemia
[9] = system: SF-295 CNS
[10] = system: OVCAR-8 ovarian
[11] = system: NCI-H226 lung
[12] = system: COLO 205 colon
[13] = system: NCI-H522 lung
[14] = system: HL-60(TB) leukemia
[15] = system: PC-3 prostate
[16] = system: HCC-2998 colon
[17] = system: MCF7 breast
[18] = system: UO-31 renal
[19] = system: CCRF-CEM leukemia
[20] = system: LOX IMVI melanoma
[21] = system: A549 NSCLC
[22] = system: HS 578T breast
[23] = system: HT29 colon
[24] = system: SW-620 colon
[25] = system: SK-MEL-5 melanoma
[26] = system: SK-OV-3 ovarian
[27] = system: ACHN renal
[28] = system: SF-539 CNS
[29] = system: OVCAR-5 ovarian
[30] = system: MDA-MB-435
[31] = system: EKVX NSCLC
[32] = system: SN12C renal
[33] = system: HOP-62 NSCLC
[34] = system: HCT-15 colon
[35] = system: TK-10 renal
[36] = system: T-47D breast
[37] = system: HCT-116 colon
[38] = system: U251 CNS
[39] = system: SNB-75 CNS
[40] = system: MDA-MB-231 breast
[41] = system: UACC-62 melanoma
[42] = system: RXF 393 renal
[43] = system: M14 melanoma
[44] = system: SR leukemia
[45] = system: MDA-MB-468 breast
[46] = system: HOP-92 NSCLC
[47] = system: NCI/ADR-RES ovarian
[48] = system: SF-268 CNS
[49] = system: SK-MEL-28 melanoma
[50] = system: RPMI-8226 leukemia
[51] = system: 786-0 renal
[52] = system: BT-549 breast
[53] = system: CAKI-1 renal
[54] = system: KM12 colon
[55] = system: SK-MEL-2 melanoma
[56] = system: SNB-19 CNS
[57] = system: OVCAR-3 ovarian
[58] = system: IGROV1 ovarian
[59] = system: DU-145 prostate

## Cc1ccc(C2CC(c3ccc(NC(=O)Nc4ccccc4)cc3)=NN2c2ccc(S(C)(=O)=O)cc2)cc1 (configuration not stated)
[1]
  GI50: 2480 nM
  TGI: 8.48 µM
[2]
  GI50: 2420 nM
  TGI: 8.14 µM
[3]
  GI50: 2840 nM
  TGI: 11.3 µM
[4]
  GI50: 2470 nM
  TGI: 8.74 µM
[5]
  GI50: 2730 nM
  TGI: 6.97 µM
[6]
  GI50: 6.15 µM
  TGI: 22.6 µM
[7]
  GI50: 2200 nM
  TGI: 5.6 µM
[8]
  GI50: 3140 nM
  TGI: 70.9 µM
[9]
  GI50: 2580 nM
  TGI: 8.35 µM
[10]
  GI50: 4830 nM
  TGI: 21.7 µM
[11]
  GI50: 2410 nM
  TGI: 7.04 µM
[12]
  GI50: 1930 nM
  TGI: 3.65 µM
[13]
  GI50: 2240 nM
  TGI: 10.6 µM
[14]
  GI50: 2090 nM
  TGI: 6.11 µM
[15]
  GI50: 2820 nM
  TGI: 11.8 µM
[16]
  GI50: 2380 nM
  TGI: 6.27 µM
[17]
  GI50: 2110 nM
  TGI: 6.79 µM
[18]
  GI50: 2580 nM
  TGI: 11.2 µM
[19]
  GI50: 2530 nM
  TGI: 6.98 µM
[20]
  GI50: 1680 nM
  TGI: 3.07 µM
[21]
  GI50: 3.46 µM
  TGI: 16 µM
[22]
  GI50: 3470 nM
  TGI: 17.2 µM
[23]
  GI50: 1910 nM
  TGI: 4.97 µM
[24]
  GI50: 2600 nM
  TGI: 12.1 µM
[25]
  GI50: 2340 nM
  TGI: 6.28 µM
[26]
  GI50: 7.96 µM
  TGI: 21.2 µM
[27]
  GI50: 2990 nM
  TGI: 9.59 µM
[28]
  GI50: 2280 nM
  TGI: 6.05 µM
[29]
  GI50: 2270 nM
  TGI: 6.78 µM
[30]
  GI50: 2940 nM
  TGI: 12.3 µM
[31]
  GI50: 2610 nM
  TGI: 11.1 µM
[32]
  GI50: 1690 nM
  TGI: 3160 nM
[33]
  GI50: 6.94 µM
  TGI: 21.4 µM
[34]
  GI50: 1950 nM
  TGI: 5.4 µM
[35]
  GI50: 4520 nM
  TGI: 17.1 µM
[36]
  GI50: 3020 nM
  TGI: 11.1 µM
[37]
  GI50: 1720 nM
  TGI: 3.56 µM
[38]
  GI50: 4.36 µM
  TGI: 17.1 µM
[39]
  GI50: 4440 nM
  TGI: 19.3 µM
[40]
  GI50: 2110 nM
  TGI: 4940 nM
[41]
  GI50: 3190 nM
  TGI: 13.4 µM
[42]
  GI50: 1840 nM
  TGI: 5080 nM
[43]
  GI50: 3280 nM
  TGI: 12.6 µM
[44]
  GI50: 2590 nM
  TGI: 10.7 µM
[45]
  GI50: 2090 nM
  TGI: 5660 nM
[46]
  GI50: 2350 nM
  TGI: 8.22 µM
[47]
  GI50: 2500 nM
  TGI: 7.74 µM
[48]
  GI50: 3820 nM
  TGI: 15.5 µM
[49]
  GI50: 3390 nM
  TGI: 11.9 µM
[50]
  GI50: 2480 nM
  TGI: 7.98 µM
[51]
  GI50: 2240 nM
  TGI: 6.1 µM
[52]
  GI50: 2950 nM
  TGI: 7.93 µM
[53]
  GI50: 3.34 µM
  TGI: 11.6 µM
[54]
  GI50: 3150 nM
  TGI: 10.7 µM
[55]
  GI50: 7.39 µM
  TGI: 22.3 µM
[56]
  GI50: 5530 nM
  TGI: 18.4 µM
[57]
  GI50: 1930 nM
  TGI: 4.47 µM
[58]
  GI50: 2910 nM
  TGI: 11 µM
[59]
  GI50: 4430 nM
  TGI: 18.2 µM

## CN(CCSSCCN1CCOCC1)C(=O)Oc1cc2c(c3ccccc13)[C@H](CCl)CN2C(=O)c1cc2cc(OCCCN3CCC3)ccc2[nH]1
[1]
  GI50: 10.1 nM
  TGI: 0.0433 µM
[3]
  GI50: 615 nM
  TGI: 2.28 µM
[4]
  GI50: 48.1 nM
  TGI: 0.123 µM
[8]
  GI50: 75.1 nM
  TGI: 2.67 µM
[9]
  GI50: 3.04 nM
  TGI: 0.0108 µM
[10]
  GI50: 24.7 nM
  TGI: 0.136 µM
[13]
  GI50: 273 nM
  TGI: 1.02 µM
[14]
  GI50: 131 nM
  TGI: 1.4 µM
[15]
  GI50: 39.6 nM
  TGI: 1.77 µM
[16]
  GI50: 27 nM
  TGI: 0.102 µM
[17]
  GI50: 7.52 nM
  TGI: 2.64 µM
[19]
  GI50: 102 nM
  TGI: 9.89 µM
[22]
  GI50: 178 nM
  TGI: 1.1 µM
[23]
  GI50: 69.9 nM
  TGI: 25 µM
[24]
  GI50: 46.4 nM
  TGI: 2.7 µM
[25]
  GI50: 6.32 nM
  TGI: 0.0321 µM
[26]
  GI50: 0.00867 µM
  TGI: 0.101 µM
[28]
  GI50: 51.3 nM
  TGI: 0.123 µM
[29]
  GI50: 67.5 nM
  TGI: 0.266 µM
[30]
  GI50: 36.7 nM
  TGI: 0.104 µM
[31]
  GI50: 42 nM
  TGI: 0.134 µM
[32]
  GI50: 64.9 nM
  TGI: 1440 nM
[33]
  GI50: 0.00251 µM
  TGI: 0.0288 µM
[34]
  GI50: 57.4 nM
  TGI: 0.642 µM
[35]
  GI50: 971 nM
  TGI: 5.81 µM
[36]
  GI50: 287 nM
  TGI: 1.7 µM
[37]
  GI50: 45.2 nM
  TGI: 5.04 µM
[39]
  GI50: 38 nM
  TGI: 0.173 µM
[40]
  GI50: 71.1 nM
  TGI: 178 nM
[41]
  GI50: 6.25 nM
  TGI: 0.0321 µM
[42]
  GI50: 40.6 nM
  TGI: 82.9 nM
[43]
  GI50: 10.1 nM
  TGI: 0.0426 µM
[45]
  GI50: 40.2 nM
  TGI: 173 nM
[46]
  GI50: 382 nM
  TGI: 1.44 µM
[48]
  GI50: 24.4 nM
  TGI: 0.849 µM
[49]
  GI50: 29.1 nM
  TGI: 0.0667 µM
[50]
  GI50: 473 nM
  TGI: 5.18 µM
[54]
  GI50: 30.6 nM
  TGI: 5.43 µM
[55]
  GI50: 0.0494 µM
  TGI: 0.0959 µM
[56]
  GI50: 6.65 nM
  TGI: 0.127 µM
[57]
  GI50: 236 nM
  TGI: 2.38 µM
[59]
  GI50: 11.9 nM
  TGI: 2.98 µM

Source: PubChem BioAssay (NCI)
